Experimental data: PMC12548400, “Urease promotes pH homeostasis and growth of Staphylococcus aureus in skin-like conditions” (Journal of Bacteriology, 2025)

Columns and labels:
S. aureus urease [1] = target: T1, S. aureus urease (Staphylococcus aureus, UniProt Q2FEK3); assay: urease activity in cell-free lysate with […] urea; coupled glutamate dehydrogenase/NADH assay; type: biochemical
T1 construct: gene ureC; native urease in cell-free lysates of S. aureus LAC (USA300); with UreA, UreB (urease subunits)
T1 sequence (Q2FEK4 whole entry): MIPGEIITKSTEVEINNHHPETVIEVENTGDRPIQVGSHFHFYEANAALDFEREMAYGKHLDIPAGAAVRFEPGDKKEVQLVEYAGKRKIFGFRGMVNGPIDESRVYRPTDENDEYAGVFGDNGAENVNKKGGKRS
T1 sequence (Q2FEK3 whole entry): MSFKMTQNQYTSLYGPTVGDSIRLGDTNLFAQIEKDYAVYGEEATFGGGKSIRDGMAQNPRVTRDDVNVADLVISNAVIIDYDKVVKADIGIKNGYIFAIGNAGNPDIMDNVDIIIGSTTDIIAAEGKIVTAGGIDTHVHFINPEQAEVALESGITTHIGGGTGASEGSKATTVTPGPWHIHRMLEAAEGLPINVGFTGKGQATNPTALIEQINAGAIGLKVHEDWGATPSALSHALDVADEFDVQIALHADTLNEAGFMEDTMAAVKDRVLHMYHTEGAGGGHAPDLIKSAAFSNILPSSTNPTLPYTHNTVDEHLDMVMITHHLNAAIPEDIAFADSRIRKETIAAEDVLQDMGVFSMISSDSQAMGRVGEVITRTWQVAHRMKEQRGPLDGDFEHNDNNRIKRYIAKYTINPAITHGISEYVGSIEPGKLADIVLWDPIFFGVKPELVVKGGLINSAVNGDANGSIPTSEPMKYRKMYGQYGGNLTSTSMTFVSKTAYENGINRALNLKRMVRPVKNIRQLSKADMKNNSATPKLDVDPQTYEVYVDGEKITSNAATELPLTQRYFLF
T1 sequence (Q2FEK5 whole entry, further chain): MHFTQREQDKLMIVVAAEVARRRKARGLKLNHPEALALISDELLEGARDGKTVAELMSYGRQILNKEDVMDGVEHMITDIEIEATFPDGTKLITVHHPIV

jack bean urease = target: T2, jack bean urease (Canavalia ensiformis, UniProt P07374); assay: inhibition of purified urease; coupled glutamate dehydrogenase/NADH depletion assay at […] nm; type: biochemical
T2 construct: commercially purified jack bean urease
T2 sequence (P07374 whole entry, looked up): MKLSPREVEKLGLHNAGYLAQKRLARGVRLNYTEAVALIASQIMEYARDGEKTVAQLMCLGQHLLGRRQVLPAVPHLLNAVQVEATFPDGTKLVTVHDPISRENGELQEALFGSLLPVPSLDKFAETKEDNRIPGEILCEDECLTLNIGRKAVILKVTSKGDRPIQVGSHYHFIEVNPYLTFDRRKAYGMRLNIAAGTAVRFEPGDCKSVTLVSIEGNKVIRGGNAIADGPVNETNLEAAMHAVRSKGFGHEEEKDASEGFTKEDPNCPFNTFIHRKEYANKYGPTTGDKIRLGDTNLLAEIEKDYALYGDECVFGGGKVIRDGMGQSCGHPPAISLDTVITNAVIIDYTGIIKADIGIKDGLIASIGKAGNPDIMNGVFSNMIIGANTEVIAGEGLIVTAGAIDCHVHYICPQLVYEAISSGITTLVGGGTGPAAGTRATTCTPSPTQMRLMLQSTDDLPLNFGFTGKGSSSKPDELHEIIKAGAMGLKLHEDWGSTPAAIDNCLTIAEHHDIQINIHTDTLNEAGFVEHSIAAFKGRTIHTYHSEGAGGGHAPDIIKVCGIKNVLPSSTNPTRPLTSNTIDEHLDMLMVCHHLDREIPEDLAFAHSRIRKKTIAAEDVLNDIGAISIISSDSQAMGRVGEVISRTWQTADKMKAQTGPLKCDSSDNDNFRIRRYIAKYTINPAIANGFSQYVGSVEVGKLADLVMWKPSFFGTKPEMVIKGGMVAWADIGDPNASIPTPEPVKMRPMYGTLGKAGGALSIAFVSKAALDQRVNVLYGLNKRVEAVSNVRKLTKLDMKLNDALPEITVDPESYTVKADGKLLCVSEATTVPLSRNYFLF

S. aureus urease [2] = target: T3, S. aureus urease (Staphylococcus aureus, UniProt P67403); assay: urea hydrolysis in lysates by coupled enzyme assay; activity lost in ureD::Tn mutant and restored by complementation; type: cell-based
T3 construct: gene ureC; native urease in cell lysates of S. aureus LAC (USA300); with UreA, UreB (urease subunits)
T3 sequence (P67403 whole entry): as the sequence (Q2FEK3 whole entry) above

Row | SMILES | IC50 (S. aureus urease [1]) | IC50 (jack bean urease) | urea hydrolysis in lysates by coupled enzyme assay; activity lost in ureD::Tn mu (S. aureus urease [2])
1 | NP(N)(=O)NC(=O)c1ccc(F)cc1 [FF, N-(diaminophosphinyl)-4-fluorobenzenamide] | 0.0342 µM | 0.131 µM | –
2 | NC(N)=O [urea] | – | – | loss of urease activity in the mutant strain and reconstitution of activity in the complementation strain using a coupled enzyme assay
